Measurements published in patent publication US4081531A, “Antibiotic mimosamycin” (priority 1975, dated 1978).
Converted amounts (≈) assume the structure as drawn.

Columns and labels:
Pseudomonas aeruginosa = test: Antimicrobial spectrum (MIC); assay type: cell-based; settings: 1% glucose nutrient agar, 37° C, 24 or 48 hours
Bacillus cereus = test: Antimicrobial spectrum (MIC); assay type: cell-based; settings: 1% glucose nutrient agar, 37° C, 24 or 48 hours
Shigella dysenteriae = test: Antimicrobial spectrum (MIC); assay type: cell-based; settings: 1% glucose nutrient agar, 37° C, 24 or 48 hours
Staphylococcus citreus = test: Antimicrobial spectrum (MIC); assay type: cell-based; settings: 1% glucose nutrient agar, 37° C, 24 or 48 hours
[1] = system: Trichophyton mentagrophytes; test: Antimicrobial spectrum (MIC); assay type: cell-based; settings: Sabouraud dextrose agar, 27° C, 72 hours
Serratia marcescens = test: Antimicrobial spectrum (MIC); assay type: cell-based; settings: 1% glucose nutrient agar, 37° C, 24 or 48 hours
Solubility = assay type: physicochemical
[2] = system: Streptococcus hemolyticus 090R; test: Antimicrobial spectrum (MIC); assay type: cell-based; settings: blood agar, 37° C, 24 or 48 hours
Streptococcus salivarius = test: Antimicrobial spectrum (MIC); assay type: cell-based; settings: 1% glucose nutrient agar, 37° C, 24 or 48 hours
[3] = system: Corynebacterium diphtheriae; test: Antimicrobial spectrum (MIC); assay type: cell-based; settings: 1% glucose nutrient agar, 37° C, 24 or 48 hours
Staphylococcus albus = test: Antimicrobial spectrum (MIC); assay type: cell-based; settings: 1% glucose nutrient agar, 37° C, 24 or 48 hours
Nocardia asteoides = test: Antimicrobial spectrum (MIC); assay type: cell-based; settings: 37° C, 24 or 48 hours
Aspergillus niger = test: Antimicrobial spectrum (MIC); assay type: cell-based; settings: Sabouraud dextrose agar, 27° C, 48 hours
[4] = system: Bacillus subtilis PCI 219; test: Antimicrobial spectrum (MIC); assay type: cell-based; settings: 1% glucose nutrient agar, 37° C, 24 or 48 hours
Klebsiella pneumonaie = test: Antimicrobial spectrum (MIC); assay type: cell-based; settings: 1% glucose nutrient agar, 37° C, 24 or 48 hours
Mycobacterium phlei = test: Antimicrobial spectrum (MIC); assay type: cell-based; settings: 3% glycerin nutrient agar, 37° C, 24 or 48 hours
Candida albicans = test: Antimicrobial spectrum (MIC); assay type: cell-based; settings: Sabouraud dextrose agar, 27° C, 48 hours
Penicillium glaucum = test: Antimicrobial spectrum (MIC); assay type: cell-based; settings: Sabouraud dextrose agar, 27° C, 48 hours
Brucella abortus = assay type: cell-based; settings: blood agar, 37° C, 24 or 48 hours
gram-positive bacteria = test: Antibacterial activity against gram-positive bacteria; assay type: cell-based; settings: for antibacterial activity against gram-positive bacteria: chlorocarcins, summary of Table 5
Salmonella typhimurium = test: Antimicrobial spectrum (MIC); assay type: cell-based; settings: 1% glucose nutrient agar, 37° C, 24 or 48 hours
Saccharomyces cerevisiae = test: Antimicrobial spectrum (MIC); assay type: cell-based; settings: Sabouraud dextrose agar, 27° C, 48 hours
Streptococcus faecalis = test: Antimicrobial spectrum (MIC); assay type: cell-based; settings: 1% glucose nutrient agar, 37° C, 24 or 48 hours
[5] = Tolerability in mice, intravenous injection; assay type: in vivo; settings: for toxicity: mice
Method: (§1) Remarks: Nutrient agar, 37° C, 48 hours for m. smegmatis. Sauton's liquid medium, 37° C, 4 weeks for other 3 strains. The strains SMR and Matsudo resistant to streptomycin at 1000 μg/ml or higher. Mice (18 - 20 g.) tolerated intravenous injection of 50 mg./kg. of mimosamycin.
(A) and 250 mg./kg.(B and C), respectively.

[6] = system: Staphylococcus aureus Smith; test: Antimicrobial spectrum (MIC); assay type: cell-based; settings: 1% glucose nutrient agar, 37° C, 24 or 48 hours
[7] = system: Staphylococcus aureus 209 P; test: Antimicrobial spectrum (MIC); assay type: cell-based; settings: 1% glucose nutrient agar, 37° C, 24 or 48 hours
Lactobacillus arabinosus = test: Antimicrobial spectrum (MIC); assay type: cell-based; settings: 1% glucose nutrient agar, 37° C, 24 or 48 hours
gram-negative bacteria = test: Antibacterial activity against gram-negative bacteria; assay type: cell-based; settings: for antibacterial activity against most gram-negative bacteria: chlorocarcins, summary of Table 5
[8] = system: Mycobacterium smegmatis ATCC 607; test: Antimicrobial spectrum (MIC); assay type: cell-based; settings: 3% glycerin nutrient agar, 37° C, 24 or 48 hours
[9] = system: Streptococcus hemolyticus Coock; test: Antimicrobial spectrum (MIC); assay type: cell-based; settings: blood agar, 37° C, 24 or 48 hours
Escherichia coli = test: Antimicrobial spectrum (MIC); assay type: cell-based; settings: 1% glucose nutrient agar, 37° C, 24 or 48 hours
Tolura rubra = test: Antimicrobial spectrum (MIC); assay type: cell-based; settings: Sabouraud dextrose agar, 27° C, 48 hours
Mycobacterium avium = test: Antimicrobial spectrum (MIC); assay type: cell-based; settings: 3% glycerin nutrient agar, 37° C, 24 or 48 hours
Mucor mucedo = test: Antimicrobial spectrum (MIC); assay type: cell-based; settings: Sabouraud dextrose agar, 27° C, 48 hours
Corynebacterium xerosis = test: Antimicrobial spectrum (MIC); assay type: cell-based; settings: 1% glucose nutrient agar, 37° C, 24 or 48 hours
Aspergillus oryzae = test: Antimicrobial spectrum (MIC); assay type: cell-based; settings: Sabouraud dextrose agar, 27° C, 48 hours
[10] = system: Mycobacterium tuberculosis H37 RV; test: Antimicrobial activity (MIC) against tubercle bacilli; assay type: cell-based; settings: H37RV, 672 h, Sauton's liquid medium, 37° C, 4 weeks
fungi = test: Activity against fungi; assay type: cell-based; settings: at 50 μg/ml
tubercle bacilli = test: Effect against tubercle bacilli; assay type: cell-based
[11] = system: highly streptomycin-resistant strains of human tubercle bacilli; assay type: cell-based; settings: as is against normal strains of tubercle bacilli
[12] = system: Mycobacterium smegmatis ATCC607; test: Antimicrobial activity (MIC) of mimosamycin; assay type: cell-based; settings: Mycolicibacterium smegmatis, Nutrient agar, 37° C, 48 hours
Method: as §1

acid-fast bacteria = test: Activity against acid-fast bacteria; assay type: cell-based
[13] = system: Mycobacterium bovis No. 10; test: microbe, parasite or virus in culture; assay type: cell-based; settings: Mycobacterium tuberculosis variant bovis, NO.10, 672 h
[14] = Lower alcohols, chloroform, esters, acetone, benzene, ethyl ether

Molecule: chlorocarcin A
- MIC (Pseudomonas aeruginosa): > 100 µg/mL
- MIC (Bacillus cereus): 50 µg/mL
- MIC (Shigella dysenteriae): > 100 µg/mL
- MIC (Staphylococcus citreus): 0.1 µg/mL
- MIC [1]: 100 µg/mL
- MIC (Serratia marcescens): > 100 µg/mL
- Solubility (Solubility; Ethyl ether, esters, chloroform, acetone, alcohols, 0.1N HCl): Easily soluble
- Solubility (Solubility; Water): Insoluble
- Solubility (Solubility; n-hexane, 0.1N NaOH): Sparingly soluble
- MIC [2]: 50 µg/mL
- MIC (Streptococcus salivarius): 6.25 µg/mL
- MIC [3]: 0.003 µg/mL
- MIC (Staphylococcus albus): 0.1 µg/mL
- MIC (Nocardia asteoides): 25 µg/mL
- MIC (Aspergillus niger): > 100 µg/mL
- MIC [4]: 0.2 µg/mL
- MIC (Klebsiella pneumonaie): 100 µg/mL
- MIC (Mycobacterium phlei): 100 µg/mL
- MIC (Candida albicans): > 100 µg/mL
- MIC (Penicillium glaucum): > 100 µg/mL
- MIC (Brucella abortus): > 100 µg/mL
- antibacterial activity against gram-positive bacteria (gram-positive bacteria): mainly show an antibacterial activity
- MIC (Salmonella typhimurium): > 100 µg/mL
- MIC (Saccharomyces cerevisiae): > 100 µg/mL
- MIC (Streptococcus faecalis): 25 µg/mL
- toxicity [5]: relatively low toxicity
- MIC [6]: 0.02 µg/mL
- MIC [7]: 0.1 µg/mL
- MIC (Lactobacillus arabinosus): 12.5 µg/mL
- antibacterial activity against most gram-negative bacteria (gram-negative bacteria): little antibacterial activity
- MIC [8]: 100 µg/mL
- MIC [9]: 6.25 µg/mL
- MIC (Escherichia coli): > 100 µg/mL
- MIC (Tolura rubra): > 100 µg/mL
- MIC (Mycobacterium avium): 100 µg/mL
- MIC (Mucor mucedo): > 100 µg/mL
- MIC (Corynebacterium xerosis): 0.003 µg/mL
- MIC (Aspergillus oryzae): > 100 µg/mL

Molecule: chlorocarcin B
- MIC (Pseudomonas aeruginosa): > 100 µg/mL
- MIC (Bacillus cereus): 50 µg/mL
- MIC (Shigella dysenteriae): > 100 µg/mL
- MIC (Staphylococcus citreus): 25 µg/mL
- MIC [1]: > 100 µg/mL
- MIC (Serratia marcescens): > 100 µg/mL
- Solubility (Solubility; [14]): Easily soluble
- Solubility (Solubility; Water): Insoluble
- Solubility (Solubility; n-hexane): Sparingly soluble
- MIC [2]: 100 µg/mL
- MIC (Streptococcus salivarius): 50 µg/mL
- MIC [3]: 0.05 µg/mL
- MIC (Staphylococcus albus): 50 µg/mL
- MIC (Nocardia asteoides): 50 µg/mL
- MIC (Aspergillus niger): > 100 µg/mL
- MIC [4]: 25 µg/mL
- MIC (Klebsiella pneumonaie): 50 µg/mL
- MIC (Mycobacterium phlei): > 100 µg/mL
- MIC (Candida albicans): > 100 µg/mL
- MIC (Penicillium glaucum): > 100 µg/mL
- MIC (Brucella abortus): > 100 µg/mL
- antibacterial activity against gram-positive bacteria (gram-positive bacteria): mainly show an antibacterial activity
- MIC (Salmonella typhimurium): > 100 µg/mL
- MIC (Saccharomyces cerevisiae): > 100 µg/mL
- MIC (Streptococcus faecalis): > 100 µg/mL
- toxicity [5]: relatively low toxicity
- MIC [6]: 12.5 µg/mL
- MIC [7]: 12.5 µg/mL
- MIC (Lactobacillus arabinosus): 50 µg/mL
- antibacterial activity against most gram-negative bacteria (gram-negative bacteria): little antibacterial activity
- MIC [8]: > 100 µg/mL
- MIC [9]: 6.25 µg/mL
- MIC (Escherichia coli): > 100 µg/mL
- MIC (Tolura rubra): > 100 µg/mL
- MIC (Mycobacterium avium): > 100 µg/mL
- MIC (Mucor mucedo): > 100 µg/mL
- MIC (Corynebacterium xerosis): 0.39 µg/mL
- MIC (Aspergillus oryzae): > 100 µg/mL

Molecule: chlorocarcin C
- MIC (Pseudomonas aeruginosa): > 100 µg/mL
- MIC (Bacillus cereus): 50 µg/mL
- MIC (Shigella dysenteriae): > 100 µg/mL
- MIC (Staphylococcus citreus): 25 µg/mL
- MIC [1]: > 100 µg/mL
- MIC (Serratia marcescens): > 100 µg/mL
- Solubility (Solubility; [14]): Easily soluble
- Solubility (Solubility; Water): Insoluble
- Solubility (Solubility; n-hexane): Sparingly soluble
- MIC [2]: 100 µg/mL
- MIC (Streptococcus salivarius): 50 µg/mL
- MIC [3]: 0.05 µg/mL
- MIC (Staphylococcus albus): 50 µg/mL
- MIC (Nocardia asteoides): 50 µg/mL
- MIC (Aspergillus niger): > 100 µg/mL
- MIC [4]: 25 µg/mL
- MIC (Klebsiella pneumonaie): 50 µg/mL
- MIC (Mycobacterium phlei): > 100 µg/mL
- MIC (Candida albicans): > 100 µg/mL
- MIC (Penicillium glaucum): > 100 µg/mL
- MIC (Brucella abortus): > 100 µg/mL
- antibacterial activity against gram-positive bacteria (gram-positive bacteria): mainly show an antibacterial activity
- MIC (Salmonella typhimurium): > 100 µg/mL
- MIC (Saccharomyces cerevisiae): > 100 µg/mL
- MIC (Streptococcus faecalis): > 100 µg/mL
- toxicity [5]: relatively low toxicity
- MIC [6]: 12.5 µg/mL
- MIC [7]: 12.5 µg/mL
- MIC (Lactobacillus arabinosus): 50 µg/mL
- antibacterial activity against most gram-negative bacteria (gram-negative bacteria): little antibacterial activity
- MIC [8]: > 100 µg/mL
- MIC [9]: 6.25 µg/mL
- MIC (Escherichia coli): > 100 µg/mL
- MIC (Tolura rubra): > 100 µg/mL
- MIC (Mycobacterium avium): > 100 µg/mL
- MIC (Mucor mucedo): > 100 µg/mL
- MIC (Corynebacterium xerosis): 0.39 µg/mL
- MIC (Aspergillus oryzae): > 100 µg/mL

Molecule: COC1=C(C)C(=O)c2cc(=O)n(C)cc2C1=O [mimosamycin]
- Solubility (Solubility; Ethyl ether, n-hexane): Sparingly soluble
- Solubility (Solubility; Methanol, ethanol, chloroform, esters, acetone): Easily soluble
- Solubility (Solubility; Water): Insoluble
- MIC [10]: 1.56 µg/mL (≈ 6.69 µM)
- activity against fungi (fungi): non-effective
- activity against gram-positive bacteria (gram-positive bacteria; mimosamycin): active against gram-positive bacteria to a certain extent
- effect against tubercle bacilli (tubercle bacilli): specifically effective
- MTD ([5]; mouse, in vivo, mice 18 - 20 g, read-out: tolerated dose): 50 mg/kg
- activity against highly streptomycin-resistant strains of human tubercle bacilli [11]: effective
- activity against gram-negative bacteria (gram-negative bacteria; at 50 μg/ml): non-effective
- MIC [12]: 25 µg/mL (≈ 107 µM)
- activity against acid-fast bacteria (acid-fast bacteria): active
- MIC [13]: 6.25 µg/mL (≈ 26.8 µM)
